Experimental data as given in US9375013B2, “Herbicidal composition” (ISHIHARA SANGYO KAISHA, LTD., priority 2013, dated 2016).

Tests used:
Format in all cases: in vivo
[1] = test system: velvetleaf (Abutilon theophrasti MEDIC.); experiment: Test Example 14: pot soil treatment, growth inhibition of velvetleaf; conditions: dose 30 g/ha, 21st day after treatment, read-out: Growth inhibition rate (%) of velvetleaf, Measured value
Excerpt: (§1) On the 14th day after treatment, the state of growth of the summergrass was visually observed to determine the growth inhibition rate in accordance with the following evaluation standard. The growth inhibition rate (%) (measured value) and the growth inhibition rate (%) (calculated value) calculated by the Colby's formula are shown in Table 1. Growth inhibition rate (%)=0 (equivalent to the non-treated area) to 100 (complete kill) Upland field soil was put into a 1/160,000 ha pot, and seeds of velvetleaf (Abutilon theophrasti MEDIC.) were sown. On the next day, predetermined amounts of flazasulfuron and hexazinone were diluted with water (in an amount corresponding to 300 L/ha), and applied for soil treatment by a small sprayer. On the 21st day after treatment, the state of growth of the velvetleaf was visually observed to determine the growth inhibition rate. The growth inhibition rate (%) (measured value) and the growth inhibition rate (%) calculated in the same manner as in Test Example 1 are shown in Table 14.

[2] = test system: common lespedeza (Lespedeza striata (Thunb.) Hook. et Arn.); experiment: Test Example 12: pot soil treatment, growth inhibition of common lespedeza; conditions: Kummerowia striata, dose 30 g/ha, 21st day after treatment, read-out: Growth inhibition rate (%) of common lespedeza, Measured value
Excerpt: as §1, with “common lespedeza (Lespedeza striata (Thunb.) Hook. et Arn.)” for “velvetleaf (Abutilon theophrasti MEDIC.)”, “imazapic” for “hexazinone”, “common lespedeza” for “velvetleaf”, “12.” for “14.”

[3] = test system: field bindweed (Convolvulus arvensis L.); experiment: Test Example 15: pot soil treatment, growth inhibition of field bindweed; conditions: dose 30 g/ha, 21st day after treatment, read-out: Growth inhibition rate (%) of field bindweed, Measured value
Excerpt: as §1, with “field bindweed (Convolvulus arvensis L.)” for “velvetleaf (Abutilon theophrasti MEDIC.)”, “flazasulfuron, mesotrione” for “flazasulfuron”, “imazapic” for “hexazinone”, “field bindweed” for “velvetleaf”, “15.” for “14.”

[4] = test system: guinea grass (Panicum maximum Jacq.); experiment: Test Example 4: pot soil treatment, growth inhibition of guinea grass; conditions: Megathyrsus maximus, dose 10 g/ha, 22nd day after treatment, read-out: Growth inhibition rate (%) of guinea grass, Measured value
Excerpt: as §1, with “guinea grass (Panicum maximum Jacq.)” for “velvetleaf (Abutilon theophrasti MEDIC.)”, “mesotrione” for “hexazinone”, “22nd” for “21st”, “guinea grass” for “velvetleaf”, “4.” for “14.”

[5] = test system: barnyardgrass (Echinochloa crus-galli L); experiment: Test Example 9: pot soil treatment, growth inhibition of barnyardgrass; conditions: dose 30 g/ha, 21st day after treatment, read-out: Growth inhibition rate (%) of barnyardgrass, Measured value
Excerpt: as §1, with “barnyardgrass (Echinochloa crus-galli L)” for “velvetleaf (Abutilon theophrasti MEDIC.)”, “barnyardgrass” for “velvetleaf”, “9.” for “14.”

[6] = test system: common ragweed (Ambrosia artemisiifolia L.); experiment: Test Example 11: pot soil treatment, growth inhibition of common ragweed; conditions: dose 10 g/ha, 21st day after treatment, read-out: Growth inhibition rate (%) of common ragweed, Measured value
Excerpt: as §1, with “common ragweed (Ambrosia artemisiifolia L.)” for “velvetleaf (Abutilon theophrasti MEDIC.)”, “imazapic” for “hexazinone”, “common ragweed” for “velvetleaf”, “11.” for “14.”

In the case of `COc1cc(OC)nc(NC(=O)NS(=O)(=O)c2ncccc2C(F)(F)F)n1` [Flazasulfuron, flazasulfuron], the inhibition at 30 g/ha [1] is reported as 20%, the inhibition at 30 g/ha [2] is reported as 90% and the inhibition at 30 g/ha [3] is reported as 0%. It also gave an inhibition at 10 g/ha [4] of 0%, an inhibition at 30 g/ha [5] of 90% and an inhibition at 10 g/ha [6] of 80%.
